Test results from paper PMC8071358, “Targeting of the Essential acpP, ftsZ, and rne Genes in Carbapenem-Resistant Acinetobacter baumannii by Antisense PNA Precision Antibacterials” (Biomedicines, 2021).
{(KFF)3K-eg1} = H-(KFF)3K peptide (K lysine, F phenylalanine) with eg1 linker (8-amino-3,6-dioxaoctanoyl), on the PNA N terminus (5' end); {NH2} = C-terminal amide

Legend:
A. baumannii SSI1104 = assay: BPP-PNA MIC, broth microdilution; format: cell-based, Acinetobacter baumannii
Description: (§1) MIC values were determined by broth microdilution according to standard protocols with a few modifications. […] Then, 180 µL bacterial solutions were dispensed into a low-bind 96-well plate (Thermo-Scientific, Roskilde, Denmark) along with 20 µL of BPP-PNA compound (BPP-PNA was serially diluted 2-fold from 16 to 0.5 µM in a 96-well plate). The plate was incubated in a Tecan Genios plate reader (GMI, Minnesota, Ramsey, USA) at 37 °C for 18 h with linear shaking, OD was measured every 20 min at 595 nm. […] The minimum bactericidal concentration (MBC) values were determined by plating 10 µL samples from the wells with no visible turbidity onto Mueller–Hinton agar plates. The MBC is determined the lowest concentration of BPP-PNA that reduces the viability of the initial bacterial inoculum by ≥99.9% (3-log reduction in CFU/mL). A minimum of two independent experiments (biological replicates) of the assay were conducted, and two technical replicates were used in each experiment for each bacterium, compound, and concentration.

CRAB strain AC46 = assay: BPP-PNA MIC, broth microdilution; format: cell-based, Acinetobacter baumannii
Description: as §1

CRAB strains = assay: BPP-PNA MIC/MBC summarised over the panel of strains; format: cell-based, Acinetobacter baumannii; settings: for MIC (complete growth inhibition) over the CRAB strains tested: several A. baumannii strains
Description: (§2) MIC values were determined by broth microdilution according to standard protocols with a few modifications. An overnight bacterial cell culture was diluted to approximately 5 × 10^5 CFU/mL in non-cation-adjusted Muller Hinton Broth (MHB). Then, 180 µL bacterial solutions were dispensed into a low-bind 96-well plate (Thermo-Scientific, Roskilde, Denmark) along with 20 µL of BPP-PNA compound (BPP-PNA was serially diluted 2-fold from 16 to 0.5 µM in a 96-well plate). The plate was incubated in a Tecan Genios plate reader (GMI, Minnesota, Ramsey, USA) at 37 °C for 18 h with linear shaking, OD was measured every 20 min at 595 nm. […] The minimum bactericidal concentration (MBC) values were determined by plating 10 µL samples from the wells with no visible turbidity onto Mueller–Hinton agar plates. The MBC is determined the lowest concentration of BPP-PNA that reduces the viability of the initial bacterial inoculum by ≥99.9% (3-log reduction in CFU/mL). A minimum of two independent experiments (biological replicates) of the assay were conducted, and two technical replicates were used in each experiment for each bacterium, compound, and concentration.

CRAB strain AC9 = assay: BPP-PNA MIC, broth microdilution; format: cell-based, Acinetobacter baumannii; settings: MHB without cation (Oxoid); 37 °C, 18 h
Description: as §2

CRAB strain AC44 = assay: BPP-PNA MIC, broth microdilution; format: cell-based, Acinetobacter baumannii
Description: as §2

CRAB strain AC2 = assay: BPP-PNA MIC, broth microdilution; format: cell-based, Acinetobacter baumannii
Description: as §2

CRAB strain AC3 = assay: BPP-PNA MIC, broth microdilution; format: cell-based, Acinetobacter baumannii; settings: MHB without cation (Oxoid); 37 °C, 18 h
Description: as §2

CRAB strain AC4 = assay: BPP-PNA MIC, broth microdilution; format: cell-based, Acinetobacter baumannii; settings: MHB without cation (Oxoid); 37 °C, 18 h
Description: as §2

CRAB strain AC8 = assay: BPP-PNA MIC, broth microdilution; format: cell-based, Acinetobacter baumannii; settings: MHB without cation (Oxoid); 37 °C, 18 h
Description: as §2

CRAB strain AC1 = assay: BPP-PNA MIC, broth microdilution; format: cell-based, Acinetobacter baumannii; settings: MHB without cation (Oxoid); 37 °C, 18 h
Description: as §2

CRAB strain AC5 = assay: BPP-PNA MIC, broth microdilution; format: cell-based, Acinetobacter baumannii; settings: MHB without cation (Oxoid); 37 °C, 18 h
Description: as §2

CRAB strain AC6 = assay: BPP-PNA MIC, broth microdilution; format: cell-based, Acinetobacter baumannii; settings: MHB without cation (Oxoid); 37 °C, 18 h
Description: as §2

CRAB strain AC7 = assay: BPP-PNA MIC, broth microdilution; format: cell-based, Acinetobacter baumannii; settings: MHB without cation (Oxoid); 37 °C, 18 h
Description: as §2

A. baumannii ATCC 19606 = assay: BPP-PNA MIC, broth microdilution; format: cell-based, Acinetobacter baumannii; settings: 37 °C, 18 h
Description: as §2

[1] = test system: antibiotic resistant clinical isolate AC46; assay: Minimum bactericidal concentration (MBC) assay; format: cell-based, Acinetobacter baumannii; settings: AC46, 24 h incubation, 1–8 μM
Description: as §2

[2] = test system: acpP mRNA in CRAB AC44 strain; assay: Real-time RT-PCR of target mRNA; format: cell-based, Acinetobacter baumannii; settings: AC44, 1 h treatment, normalised to 16S rRNA, against untreated control
Description: Real time RT-PCR was used to determine the relative expression level of the target gene upon treatment with match BPP-PNA compared to mismatch and untreated controls. The primers for q-PCR were designed to match conserved gene sequences using the AlleleID7 software (Premier Biosoft, San Francisco, CA, USA) (Table S6). Additionally, for more accurate expression of the genes at treatment and untreated conditions, the efficacy of target gene and internal controls primers was calculated by using three consecutive dilutions of the sample cDNA and drawing a standard curve through the slope of the line. […] Statistical analysis was carried out on the gene expression levels normalized to the chosen reference gene (16S rRNA) through −∆Ct analysis. The relative expression of each gene was determined by the 2^−ΔΔCT method. We used the GenEx standard (NormFinder and GeNorm) software (bioMCC, Germany) for analyzing the data.
An overnight culture of bacteria was diluted 1:100 in MHB medium and was grown with shaking (160 rpm) at 37 °C to reach the OD595 = 0.2. Then, the bacterial culture was treated with different concentrations of BPP-PNA for 1 h and the bacterial cells were harvested by centrifugation and the cell pellet used for RNA extraction.
Total RNA was isolated using the GeneJET RNA purification kit (ThermoFisher Scientific, Roskilde, Denmark) following the manufacturer’s protocol. RNA samples were treated with DNase for 30 min at 37 °C (Turbo DNA-free kit Ambion/Applied Biosystems, Carlsbad, CA, USA) and then incubated at 72 °C for 5 min to inactivate the DNase. The genomic DNA (gDNA) contamination was checked by polymerase chain reaction (PCR). RNA concentrations were determined by Nanodrop spectrophotometry at 260 nm and purity was checked by determining the absorption ratios at 260/280 nm. Total RNA (0.5 μg) was reverse-transcribed to yield cDNA as template for real-time quantitative PCR using the Quanti Tect reverse transcription kit (Qiagen, Copenhagen, Denmark). The cDNA was diluted 1:50 and used as a template in the reaction. […]

E. coli K-12 MG1655 = assay: BPP-PNA MIC, broth microdilution; format: cell-based, Escherichia coli; settings: non-target species; MHB without cation (Oxoid)
Description: as §2

P. aeruginosa (PAO1) = assay: BPP-PNA MIC, broth microdilution; format: cell-based, Pseudomonas aeruginosa; settings: non-target species; MHB without cation (Oxoid)
Description: as §2

HepG2 hepatocytes = assay: HepG2 cell toxicity (CellTiter-Glo, ATP); format: cell-based; settings: 10 µM, ATP level
Description: The cell toxicity of selected BPP-PNAs was determined using HepG2 hepatocytes grown in DMEM (low glucose) medium supplemented with 100 U/mL penicillin, 100 µg/mL streptomycin, 1% glutamax, and 10% fetal bovine serum (FBS) (Thermofisher Scientific, Roskilde, Denmark), at 37 °C with 5% CO2. Then, 7000–10,000 cells were seeded in each well of a 96-well plate. After 48 h, the BPP-PNAs were added (six replicates for each concentration), followed by overnight incubation. Total amount of adenosine triphosphate (ATP) was used as a measure of cell viability, according to the CellTiter-Glo luminescent cell viability assay (Promega, Madison, WI, USA) kit. BPP-PNAs concentrations ranged from 2.5 to 20 µM. Potassium dichromate (100 µM) was used as a positive control.

[3] = MHB without cation (Oxoid), 37 °C, 18 h
[4] = Table 4 (anti-rne), brand of medium not given, non-cation-adjusted MHB by method
[5] = Oxoid MHB medium, cation adjusted, 37 °C, 18 h
[6] = Sigma MHB medium without cation, 37 °C, 18 h
[7] = Sigma MHB medium without cation, ~5 × 10^5 CFU/mL, OD595 < 0.1

H-(KFF)3K-eg1-GAGTCCAGGAC-NH2 (all peptide nucleic acid (PNA), 5' {(KFF)3K-eg1}, 3' {NH2}) [PNA 5615, anti-ftsZ mismatch control of 5612]
MIC, SSI 1104 (A. baumannii SSI1104; [3]): 16 µM | MIC, AC46 (CRAB strain AC46; [3]): 16 µM | MIC50 (CRAB strains; over the CRAB and ATCC 19606 strains of Table 3, MHB without cation (Oxoid)): 16 µM | MIC, AC9 (CRAB strain AC9): 16 µM | MIC, AC44 (CRAB strain AC44; [3]): 16 µM | MIC, AC2 (CRAB strain AC2; [3]): 16 µM | MIC, AC3 (CRAB strain AC3): 8 µM | MIC, AC4 (CRAB strain AC4): 16 µM | MIC, AC8 (CRAB strain AC8): 16 µM | MIC, AC1 (CRAB strain AC1): 16 µM | MIC, AC5 (CRAB strain AC5): 16 µM | MIC, AC6 (CRAB strain AC6): 8 µM | MIC, AC7 (CRAB strain AC7): 16 µM | MIC, ATCC 19606 (A. baumannii ATCC 19606; MHB without cation (Oxoid)): 8 µM

H-(KFF)3K-eg1-TTTCATGGGTG-NH2 (antisense; N-terminal (KFF)3K-eg1 peptide, C-terminal amide, backbone not given here, further chemistry not given here) [PNA 5656, anti-rne peptide-PNA conjugate, match, −5 to +6]
MIC, SSI 1104 (A. baumannii SSI1104; [4]): 2 µM | MIC, AC46 (CRAB strain AC46; [4]): 2 µM | concentration with bactericidal activity against carbapenem-resistant A. baumannii (CRAB strains): 4 µM | bactericidal concentration relative to MIC (CRAB strains; CRAB strains): 1–2 × MIC | MIC (complete growth inhibition) over the CRAB strains tested (CRAB strains): 2 µM | MIC of match PNA lower than mismatch control (mismatch discrimination) (CRAB strains; strains of Table 2 (5612 vs 5615) or Table 4 (5656 vs 5822)): four-fold | CFU reduction in MBC assay compared to mismatch control [1]: very significant CFU reduction | MIC, AC44 (CRAB strain AC44; [4]): 2 µM | MIC, AC2 (CRAB strain AC2; [4]): 2 µM | MIC, ATCC 19606 (A. baumannii ATCC 19606; [4]): 2 µM

H-(KFF)3K-eg1-TGACTTGTCAC-NH2 (all peptide nucleic acid (PNA), 5' {(KFF)3K-eg1}, 3' {NH2}) [PNA 5640, anti-acpP mismatch control of 5639]
MIC, SSI 1104 (A. baumannii SSI1104; [5]): 4 µM | MIC, SSI 1104 (A. baumannii SSI1104; [6]): 4 µM | MIC, AC46 (CRAB strain AC46; [5]): 4 µM | MIC, AC46 (CRAB strain AC46; [6]): 4 µM | reduction in the level of the acpP mRNA [2]: 4 fold | MIC, AC44 (CRAB strain AC44; [5]): 4 µM | MIC, AC44 (CRAB strain AC44; [6]): 4 µM | MIC, AC2 (CRAB strain AC2; [5]): 4 µM | MIC, AC2 (CRAB strain AC2; [6]): 4 µM | MIC, ATCC 19606 (A. baumannii ATCC 19606; Oxoid MHB medium, cation adjusted): 4 µM | MIC, ATCC 19606 (A. baumannii ATCC 19606; [7]): 4 µM

H-(KFF)3K-eg1-ATATCGCTCAC-NH2 (all peptide nucleic acid (PNA), 5' {(KFF)3K-eg1}, 3' {NH2}) [PNA 5652, anti-acpP peptide-PNA conjugate, match, +40 to +50]
MIC, E. coli K-12 MG1655 (E. coli K-12 MG1655): 16 µM | MIC, SSI 1104 (A. baumannii SSI1104; [3]): 4 µM | MIC, SSI 1104 (A. baumannii SSI1104; [6]): 4 µM | MIC, AC46 (CRAB strain AC46; [6]): 4 µM | MIC (complete growth inhibition) over the CRAB strains tested (CRAB strains): 4 µM | MIC, P. aeruginosa (PAO1) (P. aeruginosa (PAO1)): 16 µM | MIC, AC44 (CRAB strain AC44; [6]): 4 µM | MIC, AC2 (CRAB strain AC2; [6]): 4 µM | MIC, ATCC 19606 (A. baumannii ATCC 19606; MHB without cation (Oxoid)): 4 µM | MIC, ATCC 19606 (A. baumannii ATCC 19606; [7]): 4 µM

H-(R-Ahx-R)4-Ahx-GAGGCCATGAC-NH2 (N-terminal (R-Ahx-R)4-Ahx peptide, C-terminal amide, backbone not given here, further chemistry not given here) [PNA 5613, anti-ftsZ (R-Ahx-R)4-Ahx-PNA, match]
MIC (CRAB strains; text on Table 2, (R-Ahx-R)4 BPP): > 16 µM | toxicity in HepG2 (HepG2 hepatocytes): very significant toxicity | MIC, AC44 (CRAB strain AC44; [3]): >16 µM | MIC, ATCC 19606 (A. baumannii ATCC 19606; MHB without cation (Oxoid)): >16 µM
